Here are results for 14 compounds from ChEMBL document CHEMBL5291721, “A preclinical secondary pharmacology resource illuminates target-adverse drug reaction associations of marketed drugs” (Nat Commun, 2023).

For assay [1], the target named is T1, Alpha-1A adrenergic receptor (Homo sapiens, UniProt P35348).
T1 sequence (P35348 whole entry): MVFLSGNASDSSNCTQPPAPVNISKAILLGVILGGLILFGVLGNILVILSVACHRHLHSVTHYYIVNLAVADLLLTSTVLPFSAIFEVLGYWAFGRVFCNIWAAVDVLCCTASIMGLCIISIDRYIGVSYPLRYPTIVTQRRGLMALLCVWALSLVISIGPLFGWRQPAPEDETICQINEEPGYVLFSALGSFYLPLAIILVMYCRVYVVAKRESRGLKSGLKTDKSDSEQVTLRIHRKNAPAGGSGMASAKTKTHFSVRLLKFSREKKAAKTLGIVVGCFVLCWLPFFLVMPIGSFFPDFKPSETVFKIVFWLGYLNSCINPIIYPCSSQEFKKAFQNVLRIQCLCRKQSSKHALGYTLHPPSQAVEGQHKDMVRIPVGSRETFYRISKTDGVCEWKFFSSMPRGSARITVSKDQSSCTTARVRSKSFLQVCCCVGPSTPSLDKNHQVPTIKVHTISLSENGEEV
Type of assay: functional, cell-based.

The target of another assay is T2, Estrogen receptor (Homo sapiens, UniProt P03372).
T2 sequence (P03372 whole entry): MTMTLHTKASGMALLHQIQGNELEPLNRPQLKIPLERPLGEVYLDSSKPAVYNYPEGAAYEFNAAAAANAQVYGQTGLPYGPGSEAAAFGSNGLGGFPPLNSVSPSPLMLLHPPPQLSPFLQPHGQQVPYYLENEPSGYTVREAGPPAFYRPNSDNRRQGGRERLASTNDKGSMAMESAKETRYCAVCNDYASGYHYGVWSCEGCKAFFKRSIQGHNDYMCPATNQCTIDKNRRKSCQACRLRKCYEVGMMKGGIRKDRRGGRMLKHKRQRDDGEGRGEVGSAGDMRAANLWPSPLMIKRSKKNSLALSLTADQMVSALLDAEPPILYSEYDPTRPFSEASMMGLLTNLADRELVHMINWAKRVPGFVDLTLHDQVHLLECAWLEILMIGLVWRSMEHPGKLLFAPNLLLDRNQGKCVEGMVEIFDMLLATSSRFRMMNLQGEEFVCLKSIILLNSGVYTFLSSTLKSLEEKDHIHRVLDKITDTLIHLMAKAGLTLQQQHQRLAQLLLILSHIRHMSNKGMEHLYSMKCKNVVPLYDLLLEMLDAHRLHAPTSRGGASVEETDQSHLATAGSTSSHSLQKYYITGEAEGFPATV

The target of the next assay is Histamine H3 receptor (Homo sapiens, UniProt Q9Y5N1).
Histamine H3 receptor, sequence (Q9Y5N1 whole entry): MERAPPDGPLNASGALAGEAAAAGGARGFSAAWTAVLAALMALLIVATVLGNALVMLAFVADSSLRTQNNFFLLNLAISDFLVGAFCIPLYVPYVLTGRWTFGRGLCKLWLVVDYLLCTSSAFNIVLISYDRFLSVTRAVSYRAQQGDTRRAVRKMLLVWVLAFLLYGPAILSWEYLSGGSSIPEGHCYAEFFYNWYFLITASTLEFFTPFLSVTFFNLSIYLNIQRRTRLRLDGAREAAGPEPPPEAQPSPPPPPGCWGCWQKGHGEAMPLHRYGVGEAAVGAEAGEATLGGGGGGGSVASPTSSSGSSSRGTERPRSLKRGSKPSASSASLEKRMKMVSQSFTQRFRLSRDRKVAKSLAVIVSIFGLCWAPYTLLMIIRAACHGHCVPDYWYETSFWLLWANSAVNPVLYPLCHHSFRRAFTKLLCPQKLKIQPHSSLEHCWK
Assay [2] addresses T3, Amine oxidase [flavin-containing] A (Homo sapiens, UniProt P21397).
T3 sequence (P21397 whole entry): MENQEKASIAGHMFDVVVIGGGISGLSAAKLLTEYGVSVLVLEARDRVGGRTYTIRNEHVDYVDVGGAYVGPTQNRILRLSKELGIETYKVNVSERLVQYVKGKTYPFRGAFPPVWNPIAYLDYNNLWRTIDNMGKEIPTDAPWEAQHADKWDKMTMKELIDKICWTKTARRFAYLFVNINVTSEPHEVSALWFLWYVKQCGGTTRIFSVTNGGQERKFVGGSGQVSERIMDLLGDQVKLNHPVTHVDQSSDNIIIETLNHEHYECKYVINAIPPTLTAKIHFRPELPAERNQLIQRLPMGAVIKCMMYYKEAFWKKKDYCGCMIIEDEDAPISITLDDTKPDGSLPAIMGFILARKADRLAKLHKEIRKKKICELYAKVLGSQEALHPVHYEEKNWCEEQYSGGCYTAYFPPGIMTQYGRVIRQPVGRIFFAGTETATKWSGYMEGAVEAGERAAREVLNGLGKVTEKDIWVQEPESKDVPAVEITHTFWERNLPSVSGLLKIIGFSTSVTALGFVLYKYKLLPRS
Type of assay: functional.

In assay [3] the target is cGMP-inhibited 3',5'-cyclic phosphodiesterase 3A (Homo sapiens, UniProt Q14432). Type of assay: functional.
cGMP-inhibited 3',5'-cyclic phosphodiesterase 3A, sequence (Q14432 whole entry): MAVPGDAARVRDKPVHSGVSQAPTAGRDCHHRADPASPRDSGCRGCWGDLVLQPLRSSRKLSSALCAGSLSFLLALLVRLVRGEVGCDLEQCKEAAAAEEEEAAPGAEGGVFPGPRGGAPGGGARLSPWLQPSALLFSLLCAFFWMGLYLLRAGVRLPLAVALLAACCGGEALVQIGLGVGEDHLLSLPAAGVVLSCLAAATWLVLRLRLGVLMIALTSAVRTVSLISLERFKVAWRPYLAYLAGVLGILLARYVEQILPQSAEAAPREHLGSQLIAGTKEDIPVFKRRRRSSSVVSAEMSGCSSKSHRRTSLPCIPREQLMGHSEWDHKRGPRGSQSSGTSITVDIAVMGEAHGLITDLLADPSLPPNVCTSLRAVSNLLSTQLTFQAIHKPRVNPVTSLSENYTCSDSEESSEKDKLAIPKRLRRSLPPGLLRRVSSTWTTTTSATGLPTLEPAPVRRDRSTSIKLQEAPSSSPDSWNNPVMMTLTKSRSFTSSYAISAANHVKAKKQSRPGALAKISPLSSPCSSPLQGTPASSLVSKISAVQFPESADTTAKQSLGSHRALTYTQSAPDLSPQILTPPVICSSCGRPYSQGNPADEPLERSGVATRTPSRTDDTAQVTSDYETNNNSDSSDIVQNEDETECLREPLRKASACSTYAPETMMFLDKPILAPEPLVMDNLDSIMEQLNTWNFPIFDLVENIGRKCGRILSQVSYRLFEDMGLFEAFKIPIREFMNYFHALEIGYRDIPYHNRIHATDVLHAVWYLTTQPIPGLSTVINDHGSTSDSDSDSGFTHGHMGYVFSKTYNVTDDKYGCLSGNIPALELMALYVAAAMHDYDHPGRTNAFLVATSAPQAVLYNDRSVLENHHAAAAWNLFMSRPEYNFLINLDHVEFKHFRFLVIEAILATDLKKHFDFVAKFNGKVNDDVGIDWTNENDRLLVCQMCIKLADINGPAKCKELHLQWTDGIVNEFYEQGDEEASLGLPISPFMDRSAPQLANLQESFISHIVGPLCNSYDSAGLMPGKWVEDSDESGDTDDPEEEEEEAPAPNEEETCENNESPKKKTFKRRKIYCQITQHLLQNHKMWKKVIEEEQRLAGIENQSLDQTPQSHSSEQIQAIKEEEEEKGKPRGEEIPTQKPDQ
Assay [4] deals with Prostaglandin G/H synthase 1 (Homo sapiens, UniProt P23219). It is filed as functional.
Prostaglandin G/H synthase 1, sequence (P23219 whole entry): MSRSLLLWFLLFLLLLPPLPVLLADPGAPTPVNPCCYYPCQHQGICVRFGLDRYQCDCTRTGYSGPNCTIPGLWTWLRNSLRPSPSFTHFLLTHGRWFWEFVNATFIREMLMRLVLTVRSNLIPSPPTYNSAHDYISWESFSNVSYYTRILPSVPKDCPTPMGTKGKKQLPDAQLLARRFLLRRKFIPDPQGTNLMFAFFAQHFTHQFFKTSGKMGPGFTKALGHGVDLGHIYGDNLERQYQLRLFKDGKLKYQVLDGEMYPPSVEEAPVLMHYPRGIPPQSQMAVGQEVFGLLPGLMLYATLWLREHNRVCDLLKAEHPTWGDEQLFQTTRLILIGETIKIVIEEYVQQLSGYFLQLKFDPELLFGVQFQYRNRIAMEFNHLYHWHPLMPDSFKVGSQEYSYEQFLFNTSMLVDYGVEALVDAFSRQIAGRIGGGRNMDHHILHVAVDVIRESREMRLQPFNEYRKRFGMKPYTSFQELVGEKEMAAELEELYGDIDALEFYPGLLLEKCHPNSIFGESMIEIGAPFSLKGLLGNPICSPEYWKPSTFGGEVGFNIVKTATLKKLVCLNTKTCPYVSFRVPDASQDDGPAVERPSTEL
In assay [5] the target is Sodium-dependent serotonin transporter (Homo sapiens, UniProt P31645).
Sodium-dependent serotonin transporter, sequence (P31645 whole entry): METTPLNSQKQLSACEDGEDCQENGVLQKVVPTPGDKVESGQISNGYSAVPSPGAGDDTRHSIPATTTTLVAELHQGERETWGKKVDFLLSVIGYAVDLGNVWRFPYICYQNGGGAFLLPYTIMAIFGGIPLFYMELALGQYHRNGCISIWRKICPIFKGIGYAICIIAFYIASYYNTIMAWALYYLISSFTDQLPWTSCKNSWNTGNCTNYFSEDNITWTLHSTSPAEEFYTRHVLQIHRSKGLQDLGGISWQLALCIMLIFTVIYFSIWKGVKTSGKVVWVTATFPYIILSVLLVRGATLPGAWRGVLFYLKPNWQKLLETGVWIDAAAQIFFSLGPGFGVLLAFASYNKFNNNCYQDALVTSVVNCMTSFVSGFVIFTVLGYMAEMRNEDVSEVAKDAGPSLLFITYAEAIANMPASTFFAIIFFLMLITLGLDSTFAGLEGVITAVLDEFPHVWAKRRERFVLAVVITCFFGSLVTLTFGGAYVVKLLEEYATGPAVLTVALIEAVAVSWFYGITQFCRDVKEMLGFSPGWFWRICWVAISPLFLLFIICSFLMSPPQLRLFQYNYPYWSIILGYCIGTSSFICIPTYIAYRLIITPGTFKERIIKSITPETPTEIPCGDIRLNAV
The target of assay [6] is T4, Gastrin/cholecystokinin type B receptor (Homo sapiens, UniProt P32239).
T4 sequence (P32239 whole entry): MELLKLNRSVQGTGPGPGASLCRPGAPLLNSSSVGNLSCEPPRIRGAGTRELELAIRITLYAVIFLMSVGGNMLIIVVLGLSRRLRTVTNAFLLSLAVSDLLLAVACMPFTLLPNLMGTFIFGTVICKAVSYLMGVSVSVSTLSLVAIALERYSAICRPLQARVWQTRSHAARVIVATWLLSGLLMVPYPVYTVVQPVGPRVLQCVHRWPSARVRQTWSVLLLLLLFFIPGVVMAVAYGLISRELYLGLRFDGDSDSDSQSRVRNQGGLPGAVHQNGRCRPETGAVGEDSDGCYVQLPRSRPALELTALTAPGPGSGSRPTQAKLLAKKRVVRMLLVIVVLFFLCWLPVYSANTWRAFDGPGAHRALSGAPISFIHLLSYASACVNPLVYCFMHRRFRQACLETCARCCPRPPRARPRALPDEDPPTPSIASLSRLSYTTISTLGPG

Another assay addresses Histamine H2 receptor (Homo sapiens, UniProt P25021). It is filed as functional, cell-based.
The target of assay [7] is Vascular endothelial growth factor receptor 2 (Homo sapiens, UniProt P35968). It is filed as functional.
Vascular endothelial growth factor receptor 2, sequence (P35968 whole entry): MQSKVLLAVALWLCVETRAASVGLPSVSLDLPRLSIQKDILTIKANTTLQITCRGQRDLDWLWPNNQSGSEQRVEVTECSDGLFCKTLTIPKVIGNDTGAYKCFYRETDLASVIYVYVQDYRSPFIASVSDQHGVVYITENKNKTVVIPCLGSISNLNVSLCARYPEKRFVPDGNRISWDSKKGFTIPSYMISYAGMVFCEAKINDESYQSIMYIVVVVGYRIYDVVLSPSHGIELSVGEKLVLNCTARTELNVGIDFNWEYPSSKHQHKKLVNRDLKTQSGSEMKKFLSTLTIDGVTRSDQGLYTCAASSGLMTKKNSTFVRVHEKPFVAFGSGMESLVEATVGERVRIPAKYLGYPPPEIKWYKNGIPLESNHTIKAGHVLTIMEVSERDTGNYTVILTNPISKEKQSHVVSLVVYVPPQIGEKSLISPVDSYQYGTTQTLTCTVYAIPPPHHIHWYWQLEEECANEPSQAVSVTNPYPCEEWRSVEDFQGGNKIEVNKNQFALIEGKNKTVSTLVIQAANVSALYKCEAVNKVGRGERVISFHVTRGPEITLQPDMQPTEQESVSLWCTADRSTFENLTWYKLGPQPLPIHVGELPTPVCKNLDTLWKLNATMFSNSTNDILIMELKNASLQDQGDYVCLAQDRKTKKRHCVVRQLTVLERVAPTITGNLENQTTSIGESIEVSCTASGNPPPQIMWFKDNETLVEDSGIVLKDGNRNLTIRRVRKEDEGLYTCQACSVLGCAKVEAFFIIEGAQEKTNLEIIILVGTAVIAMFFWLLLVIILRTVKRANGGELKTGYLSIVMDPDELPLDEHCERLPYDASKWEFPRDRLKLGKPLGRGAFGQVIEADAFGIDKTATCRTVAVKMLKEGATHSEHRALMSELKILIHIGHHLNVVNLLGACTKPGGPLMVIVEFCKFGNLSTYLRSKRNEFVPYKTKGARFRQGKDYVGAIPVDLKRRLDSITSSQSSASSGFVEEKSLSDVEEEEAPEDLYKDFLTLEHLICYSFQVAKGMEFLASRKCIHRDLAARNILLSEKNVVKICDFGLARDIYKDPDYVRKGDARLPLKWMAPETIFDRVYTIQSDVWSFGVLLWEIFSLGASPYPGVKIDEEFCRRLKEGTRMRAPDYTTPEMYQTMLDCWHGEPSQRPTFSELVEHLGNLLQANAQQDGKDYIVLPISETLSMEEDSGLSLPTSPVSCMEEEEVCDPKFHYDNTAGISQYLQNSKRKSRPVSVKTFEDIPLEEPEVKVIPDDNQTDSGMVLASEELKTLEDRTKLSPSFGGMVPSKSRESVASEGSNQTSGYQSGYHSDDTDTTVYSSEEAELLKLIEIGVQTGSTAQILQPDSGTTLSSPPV
For assay [8], the target named is T5, Neuropeptide Y receptor type 1 (Homo sapiens, UniProt P25929).
T5 sequence (P25929 whole entry): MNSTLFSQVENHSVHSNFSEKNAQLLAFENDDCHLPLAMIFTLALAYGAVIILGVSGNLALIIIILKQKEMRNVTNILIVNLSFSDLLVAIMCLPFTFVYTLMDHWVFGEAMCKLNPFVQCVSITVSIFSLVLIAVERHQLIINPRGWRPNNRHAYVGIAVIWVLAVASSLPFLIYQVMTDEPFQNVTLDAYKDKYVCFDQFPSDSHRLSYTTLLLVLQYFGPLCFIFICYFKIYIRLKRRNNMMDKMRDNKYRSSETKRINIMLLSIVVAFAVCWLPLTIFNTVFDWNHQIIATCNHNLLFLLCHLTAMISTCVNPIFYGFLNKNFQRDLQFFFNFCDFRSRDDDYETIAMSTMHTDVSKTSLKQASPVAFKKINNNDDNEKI

Assay [9] deals with Beta-2 adrenergic receptor (Homo sapiens, UniProt P07550).
Beta-2 adrenergic receptor, sequence (P07550 whole entry): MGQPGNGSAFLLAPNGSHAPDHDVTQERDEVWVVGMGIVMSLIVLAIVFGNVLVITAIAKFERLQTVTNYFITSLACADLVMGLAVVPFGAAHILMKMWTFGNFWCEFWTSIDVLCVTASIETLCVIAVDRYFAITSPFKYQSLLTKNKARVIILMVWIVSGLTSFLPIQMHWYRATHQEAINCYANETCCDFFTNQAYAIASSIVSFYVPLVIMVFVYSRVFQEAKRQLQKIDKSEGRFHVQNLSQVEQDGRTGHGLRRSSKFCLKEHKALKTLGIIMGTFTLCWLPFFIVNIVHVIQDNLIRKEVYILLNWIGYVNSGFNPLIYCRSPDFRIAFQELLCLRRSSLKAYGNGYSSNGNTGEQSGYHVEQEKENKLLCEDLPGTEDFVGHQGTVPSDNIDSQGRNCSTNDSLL
Also: assay procedure not described here.

Histamine H2 receptor, sequence (P25021 whole entry): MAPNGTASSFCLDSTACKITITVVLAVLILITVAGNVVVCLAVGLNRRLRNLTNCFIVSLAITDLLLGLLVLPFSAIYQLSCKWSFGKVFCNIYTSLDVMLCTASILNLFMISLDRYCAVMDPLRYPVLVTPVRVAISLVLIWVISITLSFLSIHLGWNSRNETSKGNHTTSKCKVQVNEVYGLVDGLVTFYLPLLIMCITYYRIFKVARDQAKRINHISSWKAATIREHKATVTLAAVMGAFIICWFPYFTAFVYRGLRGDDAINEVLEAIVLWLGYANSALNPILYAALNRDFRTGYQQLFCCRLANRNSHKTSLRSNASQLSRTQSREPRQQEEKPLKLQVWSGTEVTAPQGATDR

`COc1cccc2c1C(=O)c1c(O)c3c(c(O)c1C2=O)C[C@@](O)(C(=O)CO)C[C@@H]3O[C@H]1C[C@H](N)[C@H](O[C@@H]2CCCCO2)[C@H](C)O1` [PIRARUBICIN]: the AC50 – broadly, the midpoint of the concentration-response curve, whichever way the signal moves – in assay [1] is more than 1 µM; at Estrogen receptor, more than 30 µM; on Histamine H3 receptor, more than 30 µM; in assay [2], more than 30 µM; in assay [3], more than 30 µM; in assay [4], 1.57 µM. Also, the AC50 in [5] is more than 30 µM.
In the case of `CCCCCCCCCCCCCCCC(=O)OC[C@H](COP(=O)([O-])OCC[N+](C)(C)C)OC(=O)CCCCCCCCCCCCCCC` [COLFOSCERIL PALMITATE], the AC50 (in assay [1]; at Estrogen receptor; at Histamine H3 receptor; in assay [2]; in assay [3]; in assay [4]) was more than 30 µM throughout. In assay [5], this compound showed an AC50 of more than 30 µM.
Consider `Cc1c(C)c2c(c(C)c1O)CCC(C)(COc1ccc(CC3SC(=O)NC3=O)cc1)O2` (configuration not stated) [TROGLITAZONE], for which the AC50 (in assay [1]; in [6]; on Estrogen receptor; at Histamine H2 receptor; on Histamine H3 receptor; in assay [7]) was more than 30 µM throughout. Moreover, the AC50 in assay [2] was more than 30 µM; in [8], more than 30 µM; in [3], 11 µM; in assay [4] it was more than 30 µM.
Regarding `O=P1(N(CCCl)CCCl)NCCCO1` (configuration not stated) [CYCLOPHOSPHAMIDE ANHYDROUS], the AC50 (in [1]; at Estrogen receptor; at Histamine H3 receptor; in assay [7]; in assay [2]; in [3]) was more than 30 µM throughout. In [4], the AC50 was more than 30 µM.
Regarding `CN(C)CCC=C1c2ccccc2CCc2ccccc21` [AMITRIPTYLINE], the AC50 is more than 30 µM in [1]; 21.1 µM in assay [9]; more than 30 µM in [6]; more than 30 µM at Estrogen receptor; more than 30 µM at Histamine H3 receptor; more than 30 µM in [7]. The AC50 in assay [2], in [8], in assay [3] and in assay [4] was more than 30 µM each time.
On to `CC(=O)Oc1ccccc1C(=O)O` [ASPIRIN], for which the AC50 was more than 30 µM in assay [1]; more than 10 µM in assay [9]; more than 30 µM in [6]; more than 30 µM on Estrogen receptor; more than 10 µM at Histamine H2 receptor; more than 30 µM at Histamine H3 receptor. The AC50 in assay [7], in [2], in assay [8] and in assay [3] was more than 30 µM each time.
Take `CN(C)CCCC1(c2ccc(F)cc2)OCc2cc(C#N)ccc21` (configuration not stated) [CITALOPRAM]: the AC50 was more than 10 µM in [9]; more than 30 µM in [6]; more than 30 µM on Estrogen receptor; more than 30 µM at Histamine H3 receptor; more than 30 µM in assay [7]; more than 30 µM in assay [2]. The AC50 in assay [8], in assay [3] and in [4] was more than 30 µM each time.
Turning to `C[C@H](Nc1ncnc2[nH]cnc12)c1cc2cccc(Cl)c2c(=O)n1-c1ccccc1` [DUVELISIB], the AC50 is more than 30 µM on Estrogen receptor; more than 30 µM at Histamine H3 receptor; more than 30 µM in assay [2]; 16.8 µM in [3]; more than 30 µM in assay [4]; more than 30 µM in assay [5].
`O=C(O)[C@@H](S)[C@@H](S)C(=O)O`: the AC50 (at Histamine H3 receptor; in [2]; in [3]; in [4]; in [5]) was more than 30 µM each time.
Take `C#CCN(C)Cc1ccccc1` [PARGYLINE]: the AC50 (on Estrogen receptor; at Histamine H2 receptor; at Histamine H3 receptor; in assay [3]; in assay [4]; in [5]) was more than 30 µM each time.
In the case of `CCOC(=O)[C@H](CCc1ccccc1)N[C@@H](C)C(=O)N1Cc2ccccc2C[C@H]1C(=O)O`, the AC50 in assay [1] is more than 30 µM; in assay [9] it was more than 10 µM; in [6], more than 30 µM; on Estrogen receptor, more than 30 µM; on Histamine H2 receptor, more than 10 µM; on Histamine H3 receptor, more than 30 µM. Further, the AC50 in assay [7], in assay [2], in [8], in assay [3] and in [4] was more than 30 µM throughout.
As to `O=C(Cc1cccs1)N[C@@H]1C(=O)N2C(C(=O)[O-])=C(C[n+]3ccccc3)CS[C@H]12` [CEPHALORIDINE], the concentration at half-maximal activity (AC50) (at Estrogen receptor; at Histamine H2 receptor; at Histamine H3 receptor; in [2]; in assay [3]; in assay [4]) was more than 30 µM in each case. The compound also registered an AC50 in [5] of more than 30 µM.
For `CNC1(c2ccccc2Cl)CCCCC1=O` (configuration not stated) [KETAMINE], the AC50 (in assay [1]; at Estrogen receptor; on Histamine H3 receptor; in assay [7]; in assay [2]; in [3]) was more than 30 µM in each case. The compound also displayed an AC50 in assay [4] of more than 30 µM.
Consider `NCC1(CC(=O)O)CCCCC1` [GABAPENTIN], for which the AC50 is more than 30 µM in assay [1]; more than 10 µM in [9]; more than 30 µM in assay [6]; more than 10 µM on Histamine H2 receptor; more than 30 µM at Histamine H3 receptor; more than 30 µM in assay [7]. Moreover, the half-maximal activity concentration (AC50) in assay [2], in assay [8], in [3] and in assay [4] was more than 30 µM each time.
